Source: article PMC11062899, “De novo development of small cyclic peptides that are orally bioavailable” (Nature Chemical Biology, 2023)
Values joined by “and” are separate entries in the source; they are usually repeats but may differ in a detail not shown here. Identical values can stand only once.

Key:
human α-thrombin = human α-thrombin (Homo sapiens, UniProt P00734); experiment: Protease inhibition, Ki for human α-thrombin (fluorogenic substrate Z-Gly-Gly-Arg-AMC); assay type: biochemical; details: replicates R1-R3
Summary of the method: (§1)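 Ki values come from Cheng–Prusoff correction of IC50, itself fitted by four-parameter logistic regression of activity versus a no-peptide control. Assays used 2 nM human or 3 nM rat thrombin, 50 μM Z-Gly-Gly-Arg-AMC, 30 min kinetic fluorescence at 25 °C.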

[1] = Peptide stability in simulated intestinal fluid (SIF); assay type: in vitro ADME, porcine; details: simulated gi fluid; 8 h, 37 °C, pH 6.8; read-out: Proteolytic stability: SIF (8 h) % remaining
Summary of the method: (§2)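 Peptide from a 1 mM DMSO stock was added to fluid pre-warmed at 37 °C. SGF was pH 1.2 NaCl with porcine pepsin (0.32 g per 100 ml), and SIF was pH 6.8 potassium phosphate with porcine pancreatin (1 g per 100 ml). Supernatant peptide was quantified by LC–MS, with residual expressed as T1/T0.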

porcine pancreatin = experiment: as above; assay type: in vitro ADME; details: after 8 h vs 0 h (TIC); for SIF stability, Residual peptide Average: average of R1-R3
Summary of the method: as §2

rat α-thrombin = target: T1, rat α-thrombin (Rattus norvegicus, UniProt P18292); experiment: Protease inhibition, Ki for rat α-thrombin (fluorogenic substrate Z-Gly-Gly-Arg-AMC); assay type: biochemical; details: replicates R1-R3
T1 construct: rat α-thrombin (Molecular Innovations) were used at final concentrations of 2 nM and 3 nM; purchased Molecular Innovations
Summary of the method: as §1

porcine pepsin = target: T2, porcine pepsin (Sus scrofa, UniProt P00791); experiment: Peptide stability in simulated gastric fluid (SGF); assay type: in vitro ADME; details: for SGF stability, Residual peptide Average / SGF stability, Residual peptide: after 8 h vs 0 h (TIC); for SGF stability, Residual peptide Average: average of R1-R3; for SGF stability, Residual peptide: single replicates R1-R3; for remaining at 8 h: simulated gi fluid, 37 °C, pH 1.2, read-out: Proteolytic stability: SGF (8 h) % remaining
T2 construct: 0.32 g of porcine pepsin (Sigma-Aldrich, P7125) was dissolved under gentle agitation; purchased Sigma-Aldrich P7125
T2 sequence (P00791 60-385): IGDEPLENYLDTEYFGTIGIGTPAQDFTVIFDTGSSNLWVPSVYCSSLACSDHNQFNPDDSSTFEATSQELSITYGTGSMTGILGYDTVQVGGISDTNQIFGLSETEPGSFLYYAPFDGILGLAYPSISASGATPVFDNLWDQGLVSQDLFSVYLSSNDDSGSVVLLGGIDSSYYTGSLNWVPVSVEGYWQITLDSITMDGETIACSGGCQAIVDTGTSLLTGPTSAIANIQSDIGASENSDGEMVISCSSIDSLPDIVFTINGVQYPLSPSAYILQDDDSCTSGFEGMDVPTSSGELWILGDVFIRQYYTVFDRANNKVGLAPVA
Summary of the method: as §2

[2] = Passive artificial membrane permeability (PAMPA); details: for PAMPA permeability: % permeability: 50 μM, 12–18 h, acceptor concentration relative to equilibrium; for Papp at 50 μM / Permeability% Average / Permeability% R1 / Permeability% R3: PAMPA; for Papp at 50 μM: pH 7.4; for Permeability% Average: average of R1-R3; for Permeability% R1: replicate R1; for Permeability% R1 / Permeability% R3: TIC of top well sample relative to sample at theoretical equilibrium; for Permeability% R3: replicate R3
[3] = Metabolic stability in rat liver microsomes (RLMs); details: rat, microsomes
Method: Metabolic stability was measured by incubating the peptides (10 μM) with RLMs. Peptides to test were dissolved in DMSO (4 mM), and 1 μl of the resulting solution was added to 365 μl of 0.1 M sodium phosphate buffer (pH 7.4). The solution was pre-warmed at 37 °C for 5 min before starting the reaction by addition of 24 μl of NADPH cofactor solution (22 mM) and 11 μl of RLMs (20 mg ml^−1 protein concentration; Thermo Fisher Scientific, RTMCPL). […] Samples were vortexed, sonicated for 5 min and centrifuged at 16,000g for 10 min. Supernatant was analyzed by LC–MS to quantify the disappearance of the compound and formation of degradation products.

[4] = peptide 1.33E+02 uM, slope of proteolytic substrate cleavage over time
[5] = CL (ul/min/mg protein) R1, RLM CL, replicate R1
[6] = CL (ul/min/mg protein) R2, RLM CL, replicate R2
[7] = CL (ul/min/mg protein) R3, RLM CL, replicate R3
[8] = Half Life (min) R1, RLM metabolic stability, replicate R1, 0-60 min
[9] = Half Life (min) R2, RLM metabolic stability, replicate R2, 0-60 min
[10] = Half Life (min) R3, RLM metabolic stability, replicate R3, 0-60 min
[11] = Metabolic stability: Half life T1/2 (min), RLMs, mean and SD, three measurements
[12] = Metabolic stability: RLM CL (ul/min/mg), RLMs, mean and SD, three measurements

## C[C@@H]1NC(=O)[C@@H](NC(=O)c2ccc(Cl)s2)CNC(=O)CCSCc2cccc(n2)CSCCNC1=O [compound 18]
Human α-thrombin; peptide 1.02E-03 uM
  Human alpha thrombin inhibition, slope normalized to DMSO: 93.1 and 89.2 and 94.7
Human α-thrombin; peptide 1.04E+00 uM
  Human alpha thrombin inhibition, slope normalized to DMSO: 93.7 and 88.7 and 98.8
Human α-thrombin; peptide 1.27E-04 uM
  Human alpha thrombin inhibition, slope normalized to DMSO: 100.2 and 94.8 and 98.1
Human α-thrombin; peptide 1.30E-01 uM
  Human alpha thrombin inhibition, slope normalized to DMSO: 94.8 and 90.7 and 96.5
Human α-thrombin; [4]
  Human alpha thrombin inhibition, slope normalized to DMSO: 52.1 and 50.8 and 55.1
Human α-thrombin; peptide 1.63E-02 uM
  Human alpha thrombin inhibition, slope normalized to DMSO: 97.1 and 95.8 and 94.6
Human α-thrombin; peptide 1.67E+01 uM
  Human alpha thrombin inhibition, slope normalized to DMSO: 73.4 and 68.5 and 72.3
Human α-thrombin; peptide 2.03E-03 uM
  Human alpha thrombin inhibition, slope normalized to DMSO: 97.3 and 94.1 and 99.2
Human α-thrombin; peptide 2.08E+00 uM
  Human alpha thrombin inhibition, slope normalized to DMSO: 89.4 and 90.0 and 79.4
Human α-thrombin; peptide 2.54E-04 uM
  Human alpha thrombin inhibition, slope normalized to DMSO: 98.0 and 92.5 and 94.6
Human α-thrombin; peptide 2.60E-01 uM
  Human alpha thrombin inhibition, slope normalized to DMSO: 94.5 and 91.9 and 98.0
Human α-thrombin; peptide 3.18E-05 uM
  Human alpha thrombin inhibition, slope normalized to DMSO: 100.9 and 96.3 and 98.9
Human α-thrombin; peptide 3.26E-02 uM
  Human alpha thrombin inhibition, slope normalized to DMSO: 93.0 and 91.8 and 94.1
Human α-thrombin; peptide 3.33E+01 uM
  Human alpha thrombin inhibition, slope normalized to DMSO: 68.4 and 72.8 and 70.8
Human α-thrombin; peptide 4.07E-03 uM
  Human alpha thrombin inhibition, slope normalized to DMSO: 96.7 and 91.0 and 96.0
Human α-thrombin; peptide 4.17E+00 uM
  Human alpha thrombin inhibition, slope normalized to DMSO: 85.6 and 83.5 and 84.3
Human α-thrombin; peptide 5.09E-04 uM
  Human alpha thrombin inhibition, slope normalized to DMSO: 95.1 and 89.7 and 99.5
Human α-thrombin; peptide 5.21E-01 uM
  Human alpha thrombin inhibition, slope normalized to DMSO: 94.5 and 87.9 and 92.4
Human α-thrombin; peptide 6.36E-05 uM
  Human alpha thrombin inhibition, slope normalized to DMSO: 96.8 and 88.2 and 100.6
Human α-thrombin; peptide 6.51E-02 uM
  Human alpha thrombin inhibition, slope normalized to DMSO: 133.7 and 92.1 and 94.3
Human α-thrombin; peptide 6.67E+01 uM
  Human alpha thrombin inhibition, slope normalized to DMSO: 63.9 and 63.5 and 65.7
Human α-thrombin; peptide 8.14E-03 uM
  Human alpha thrombin inhibition, slope normalized to DMSO: 96.2 (2×) and 90.9
Human α-thrombin; peptide 8.33E+00 uM
  Human alpha thrombin inhibition, slope normalized to DMSO: 81.3 and 78.4 and 82.3
[1]
  remaining at 8 h: 99 ± 9%
Porcine pancreatin
  SIF stability, Residual peptide Average: 98.53
Rat α-thrombin; [4]
  Rat alpha thrombin inhibition, slope normalized to DMSO: 32.2 and 38.1 and 17.4
Rat α-thrombin; peptide 1.67E+01 uM
  Rat alpha thrombin inhibition, slope normalized to DMSO: 45.0 and 46.6 and 55.7
Rat α-thrombin; peptide 2.08E+00 uM
  Rat alpha thrombin inhibition, slope normalized to DMSO: 90.4 and 89.1 and 91.4
Rat α-thrombin; peptide 3.33E+01 uM
  Rat alpha thrombin inhibition, slope normalized to DMSO: 47.9 and 19.5
Rat α-thrombin; peptide 4.17E+00 uM
  Rat alpha thrombin inhibition, slope normalized to DMSO: 77.9 and 77.5 and 82.1
Rat α-thrombin; peptide 6.67E+01 uM
  Rat alpha thrombin inhibition, slope normalized to DMSO: 36.2 and 41.8
Rat α-thrombin; peptide 8.33E+00 uM
  Rat alpha thrombin inhibition, slope normalized to DMSO: 63.0 and 63.5 and 66.0
Porcine pepsin
  SGF stability, Residual peptide Average: 99.57
  SGF stability, Residual peptide: 102.25 and 97.75 and 98.72
  remaining at 8 h: 100 ± 2%
[2]
  PAMPA permeability: % permeability: 2.73 ± 1.02%
  Papp at 50 μM: 0.174 ×10⁻⁶ cm/s
  Permeability% Average: 2.7%
  Permeability% R1: 2.77%
  Permeability% R3: 1.69%
[3]; [5]
  microsomal CLint: 117 µL/min/mg
[3]; [6]
  microsomal CLint: 96.6 µL/min/mg
[3]; [7]
  microsomal CLint: 95.7 µL/min/mg
[3]; [8]
  half-life: 11.8 min
[3]; [9]
  half-life: 14.3 min
[3]; [10]
  half-life: 14.5 min
[3]; [11]
  half-life: 13.5 ± 1.2 min
[3]; [12]
  microsomal CLint: 103 ± 10 µL/min/mg

## O=C1NCCSCc2cccc(n2)CSCCC(=O)N2CCC[C@H]2C(=O)N2CCN(C(=O)c3ccc(Cl)s3)CC12 (stereo partly shown) [compound 23]
Human α-thrombin; peptide 1.02E-03 uM
  Human alpha thrombin inhibition, slope normalized to DMSO: 91.9 and 90.1 and 93.2
Human α-thrombin; peptide 1.04E+00 uM
  Human alpha thrombin inhibition, slope normalized to DMSO: 79.8 and 81.1 and 79.3
Human α-thrombin; peptide 1.27E-04 uM
  Human alpha thrombin inhibition, slope normalized to DMSO: 96.4 and 91.3 and 88.2
Human α-thrombin; peptide 1.30E-01 uM
  Human alpha thrombin inhibition, slope normalized to DMSO: 96.0 and 91.0 and 92.0
Human α-thrombin; [4]
  Human alpha thrombin inhibition, slope normalized to DMSO: 8.4 and 8.5 and -2.6
Human α-thrombin; peptide 1.63E-02 uM
  Human alpha thrombin inhibition, slope normalized to DMSO: 97.2 and 84.3 and 96.8
Human α-thrombin; peptide 1.67E+01 uM
  Human alpha thrombin inhibition, slope normalized to DMSO: 30.4 and 33.6 and 42.3
Human α-thrombin; peptide 2.03E-03 uM
  Human alpha thrombin inhibition, slope normalized to DMSO: 97.8 and 93.0 and 96.6
Human α-thrombin; peptide 2.08E+00 uM
  Human alpha thrombin inhibition, slope normalized to DMSO: 73.0 and 70.9 and 73.9
Human α-thrombin; peptide 2.54E-04 uM
  Human alpha thrombin inhibition, slope normalized to DMSO: 99.0 and 94.8 and 97.2
Human α-thrombin; peptide 2.60E-01 uM
  Human alpha thrombin inhibition, slope normalized to DMSO: 91.4 and 88.4 and 89.4
Human α-thrombin; peptide 3.18E-05 uM
  Human alpha thrombin inhibition, slope normalized to DMSO: 91.8 and 117.4 and 98.4
Human α-thrombin; peptide 3.26E-02 uM
  Human alpha thrombin inhibition, slope normalized to DMSO: 94.8 and 91.6 and 96.2
Human α-thrombin; peptide 3.33E+01 uM
  Human alpha thrombin inhibition, slope normalized to DMSO: 18.0 and 18.8 and 20.4
Human α-thrombin; peptide 4.07E-03 uM
  Human alpha thrombin inhibition, slope normalized to DMSO: 93.4 and 91.5 and 94.8
Human α-thrombin; peptide 4.17E+00 uM
  Human alpha thrombin inhibition, slope normalized to DMSO: 59.5 and 58.3 and 61.9
Human α-thrombin; peptide 5.09E-04 uM
  Human alpha thrombin inhibition, slope normalized to DMSO: 97.5 and 92.8 and 99.8
Human α-thrombin; peptide 5.21E-01 uM
  Human alpha thrombin inhibition, slope normalized to DMSO: 87.6 and 85.1 and 86.8
Human α-thrombin; peptide 6.36E-05 uM
  Human alpha thrombin inhibition, slope normalized to DMSO: 100.5 and 90.1 and 98.6
Human α-thrombin; peptide 6.51E-02 uM
  Human alpha thrombin inhibition, slope normalized to DMSO: 92.5 and 91.3 and 93.7
Human α-thrombin; peptide 6.67E+01 uM
  Human alpha thrombin inhibition, slope normalized to DMSO: 11.3 and 18.5 and 12.0
Human α-thrombin; peptide 8.14E-03 uM
  Human alpha thrombin inhibition, slope normalized to DMSO: 94.9 and 92.1 and 95.9
Human α-thrombin; peptide 8.33E+00 uM
  Human alpha thrombin inhibition, slope normalized to DMSO: 50.4 and 48.8 and 50.8
[1]
  remaining at 8 h: 91 ± 9%
Porcine pancreatin
  SIF stability, Residual peptide Average: 91.31
Porcine pancreatin; single replicates R1-R3
  SIF stability, Residual peptide: 90.99 and 82.41 and 100.52
Rat α-thrombin; [4]
  Rat alpha thrombin inhibition, slope normalized to DMSO: 2.4 and 2.8 and 19.0
Rat α-thrombin; peptide 1.67E+01 uM
  Rat alpha thrombin inhibition, slope normalized to DMSO: 12.7 and 12.2 and 32.4
Rat α-thrombin; peptide 2.08E+00 uM
  Rat alpha thrombin inhibition, slope normalized to DMSO: 50.5 and 50.4 and 69.3
Rat α-thrombin; peptide 3.33E+01 uM
  Rat alpha thrombin inhibition, slope normalized to DMSO: 7.4 and 6.9 and 24.6
Rat α-thrombin; peptide 4.17E+00 uM
  Rat alpha thrombin inhibition, slope normalized to DMSO: 35.4 and 36.2 and 53.3
Rat α-thrombin; peptide 6.67E+01 uM
  Rat alpha thrombin inhibition, slope normalized to DMSO: 5.7 and 4.4 and 22.7
Rat α-thrombin; peptide 8.33E+00 uM
  Rat alpha thrombin inhibition, slope normalized to DMSO: 23.3 and 24.4 and 38.9
Porcine pepsin
  SGF stability, Residual peptide Average: 98.66
  SGF stability, Residual peptide: 100.45 and 94.90 and 100.63
  remaining at 8 h: 99 ± 3%
[2]
  PAMPA permeability: % permeability: 63 ± 5%
  Papp at 50 μM: 6.46 ×10⁻⁶ cm/s
  Permeability% Average: 62.6%
  Permeability% R1: 59.23%
  Permeability% R3: 59.76%
[3]; [5]
  microsomal CLint: 73.8 µL/min/mg
[3]; [6]
  microsomal CLint: 70.2 µL/min/mg
[3]; [7]
  microsomal CLint: 77.1 µL/min/mg
[3]; [8]
  half-life: 18.8 min
[3]; [9]
  half-life: 19.7 min
[3]; [10]
  half-life: 18 min
[3]; [11]
  half-life: 18.8 ± 0.7 min
[3]; [12]
  microsomal CLint: 74 ± 3 µL/min/mg
